Test results from patent publication US7608599B2, “Antiviral phosphoramidates” (Roche Palo Alto LLC, priority 2005, dated 2009).

Tests used:
[1] = system: HCV replicon RNA replication (Renilla luciferase HCV replicon cells 2209-23); assay: Renilla luciferase assay (HCV replicon); type: cell-based; details: 72 h; Huh7-derived replicon cell line 2209-23, three days incubation, luciferase readout
HIV = details: background, Ohrui et al.; cited from earlier work

Structure (SMILES) | IC50 [1] | anti-HIV activity (HIV)
CCC(C)OC(=O)[C@H](C)NP(=O)(OC[C@@]1(N=[N+]=[N-])O[C@@H](n2ccc(N)nc2=O)[C@H](O)[C@@H]1O)Oc1ccccc1 (stereo partly drawn) [Compound I-28, (S)-2-{[(2R,3S,4R,5R)-5-(4-Amino-2-oxo-2H-pyrimidin-1-yl)-2-azido-3,4-dihydroxy-tetrahydro-furan-2-ylmethoxy]-phenoxy-phosphorylamino}-propionic acid sec-butyl ester] | 615 nM | –
C[C@H](NP(=O)(OC[C@@]1(N=[N+]=[N-])O[C@@H](n2ccc(=O)[nH]c2=O)[C@H](O)[C@@H]1O)Oc1ccccc1)C(=O)OCc1ccccc1 (stereo partly drawn) [Compound I-13, (S)-2-{[(2R,3S,4R,5R)-2-Azido-5-(2,4-dioxo-3,4-dihydro-2H-pyrimidin-1-yl)-3,4-dihydroxy-tetrahydro-furan-2-ylmethoxy]-phenoxy-phosphorylamino}-propionic acid benzyl ester] | 754 nM | –
CCOC(=O)[C@H](C)NP(=O)(OC[C@@]1(N=[N+]=[N-])O[C@@H](n2ccc(N)nc2=O)[C@H](O)[C@@H]1O)Oc1ccccc1 (stereo partly drawn) [Compound I-34, (S)-2-{[(2R,3S,4R,5R)-5-(4-Amino-2-oxo-2H-pyrimidin-1-yl)-2-azido-3,4-dihydroxy-tetrahydro-furan-2-ylmethoxy]-phenoxy-phosphorylamino}-propionic acid ethyl ester] | 382 nM | –
CC(C)OC(=O)[C@H](C)NP(=O)(OC[C@@]1(N=[N+]=[N-])O[C@@H](n2ccc(=O)[nH]c2=O)[C@H](O)[C@@H]1O)Oc1ccccc1 (stereo partly drawn) [Compound I-14, (S)-2-{[(2R,3S,4R,5R)-2-Azido-5-(2,4-dioxo-3,4-dihydro-2H-pyrimidin-1-yl)-3,4-dihydroxy-tetrahydro-furan-2-ylmethoxy]-phenoxy-phosphorylamino}-propionic acid isopropyl ester] | 864 nM | –
C#C[C@]1(CO)O[C@@H](n2cc(C)c(=O)[nH]c2=O)[C@@H](O)[C@@H]1O [Compound 6b] | – | inactive
C#CC1(CO)OC(n2ccc(N)nc2=O)C(O)C1O (stereo not shown) [Compound 6a, 4-Ethynyl-cytarabine] | – | good anti-HIV activity
CC(C)OC(=O)[C@H](C)NP(=O)(OC[C@@]1(N=[N+]=[N-])O[C@@H](n2ccc(N)nc2=O)[C@H](O)[C@@H]1O)Oc1ccccc1 (stereo partly drawn) [Compound I-35, (S)-2-{[(2R,3S,4R,5R)-5-(4-Amino-2-oxo-2H-pyrimidin-1-yl)-2-azido-3,4-dihydroxy-tetrahydro-furan-2-ylmethoxy]-phenoxy-phosphorylamino}-propionic acid isopropyl ester] | 991 nM | –
